How the values were obtained:
[1] = tested on: diaphorase (DI); test: Michaelis constant Km and rate constant kcat of the enzymatic reaction using the electron mediator as a substrate (cyclic voltammetry in a solution containing NADH and DI); format: biochemical, Bacillus stearothermophilus; conditions: for ten times Km: 10 x Km of the electron mediator for DI, read-out: ten times the determined Km; for Km / kcat: electron mediator as substrate of DI, solution containing sufficient amounts of NADH and DI
From the text: GDH (EC1. 1. 1. 47) derived from Bacillus sp. was used as GDH, and DI(EC. 1. 6. 99. −) derived from Bacillus stearothermophilus was used as DI. Both were purchased from Amano Enzyme Inc. (Japan) and directly used without further purification. NADH, poly-L-lycine (PLL, Mw=about 93,800), and sodium polyacrylate (PAANa, Mw=about 240,000) were purchased from Sigma-Aldrich Co. VK3 was purchased from Nacalai Tesque, Inc. (Japan).
Then, the method for measuring the Michaelis constant Km and rate constant kcat of the enzymatic reaction using the electron mediator as a substrate is described.
The following electrochemical equation is established between the Michaelis constant Km and rate constant kcat (R. Matsumoto et al, J. Electroanal. Chem. 535 (2002)37).
wherein Is^lim is the current value of a flat portion of a curve obtained by cyclic voltammetry, nM is the number of electrons of the electron mediator, ns is the number of electrons of the substrate, F is the Faraday constant, A is the electrode surface area, DM is the diffusion constant of the substrate, [E] is the enzyme concentration, and [M]* is the concentration of the electron mediator.

[2] = Redox potential of the electron mediator by cyclic voltammetry in solution; format: physicochemical
[3] = Cyclic voltammetry of the GC bio-anode with immobilized VK3, no glucose; format: physicochemical; conditions: immobilized VK3 on GC bio-anode; 0.1 M phosphate buffer pH 7.0, glucose absent; vs. Ag|AgCl
Protocol: The surface of a glassy carbon (GC) electrode of 3 mm in diameter which was purchased from BAS Inc. was polished with alumina powder having a particle diameter of 0.05 μm and washed with distilled water. Then, GDH, NADH, DI, and VK3 were immobilized on the GC electrode by a polyion complex method using electrostatic interaction between PAAcNa as polyanion and poly-L-lycine (PLL) as polycation according to the following procedures.
On the GC electrode, 10 μl of an aqueous PLL solution (2% (w/v)), 8 μl of a GDH solution (1 U/μl in a 0.1 M phosphate buffer solution (NaH2PO4 buffer solution) (pH 7.0)), 8 μl of a DI solution (10 U/μl in a phosphate buffer solution), 2 μl of a NADH solution (0.9 μmol/μl in a phosphate buffer solution), 4 μl of a VK3 solution (0.29 M in acetone), and 4 μl of an aqueous PAAcNa solution (0.066% (w/v)) were added in that order. After each of the addition steps, drying was performed at 40° C. for 10 minutes. Before electrochemical measurement, the GC electrode (referred to as a “GC bio-anode” hereinafter) on which an immobilized layer had been formed as described above was rinsed with distilled water for 5 minutes.
Cyclic voltammetry (CV) was performed using the GC bio-anode as a working electrode. […]

ten times Km [1] [µM]	Km [1] [µM]	kcat [1] [s⁻¹]	E^o′ vs Ag|AgCl [2]	middle point potential of oxidation and reduction waves [3] [V]	Compound
20	2	400	−0.26		NC1=C(C(=O)O)C(=O)c2ccccc2C1=O [ACNQ, 2-amino-3-carboxy-1,4-naphthoquinone]
4	0.4	630	−0.22	−0.17	CC1=CC(=O)c2ccccc2C1=O [VK3, 2-methyl-1,4-naphthoquinone]

Compound	ten times Km [1] [µM]	Km [1] [µM]	kcat [1] [s⁻¹]	E^o′ vs Ag|AgCl [2]	middle point potential of oxidation and reduction waves [3] [V]
NC1=CC(=O)c2ccccc2C1=O [ANQ, 2-amino-1,4-naphthoquinone]	360	36	310	−0.35	

— patent US20090047567A1, “Biofuel cell, method for producing the same, electronic apparatus, enzyme-immobilized electrode, and method for producing the same” (SONY CORPORATION, priority 2007, published 2009)
